Laboratory results as given in the supplement of paper PMC7017272.
± gives the standard deviation of the averaged measurements.

Legend:
Details in all cases: treatment time: 3 days
UT-SCC-24A [1] = assay: relative IC50 (midpoint of the fitted curve; maximal inhibition may be below 50%); higher = less potent
Experimental: (§1)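 HNSCC cell lines (500 cells/well, 384-well) were cultured on plastic, on top of (2D) or embedded (3D) in Matrigel or human leiomyoma matrix Myogel (500 ug/mL; Myogel 3D mixed with rat collagen I). Cells were treated for 3 days with 5 ten-fold concentrations of each drug, and viability was read by CellTiter-Glo. Viability was normalised to DMSO (0% inhibition) and 100 uM benzethonium chloride (100% inhibition) controls and fitted with the FIMM DSRT pipeline to give IC50 (nM), maximal % inhibition and the drug sensitivity score (DSS). Suffixes _1/_2/_3 on drug names are replicates.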

UT-SCC-24A [2] = assay: drug sensitivity score (DSS); higher = more sensitive
Experimental: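 HNSCC cell lines (500 cells/well, 384-well) were cultured on plastic, on top of (2D) or embedded (3D) in Matrigel or human leiomyoma matrix Myogel (500 ug/mL; Myogel 3D mixed with rat collagen I). Cells were treated for 3 days with 5 ten-fold concentrations of each drug, and viability was read by CellTiter-Glo. Suffixes _1/_2/_3 on drug names are replicates.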

UT-SCC-42A [3] = assay: drug sensitivity score (DSS); higher = more sensitive; extreme values may be limits of the assay
In short: (§2)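 Three growth formats were used for HPV-negative HNSCC cell lines in 384-well plates at 500 cells/well: bare plastic, wells coated with Matrigel or Myogel (500 µg/mL), and embedding in Matrigel or Myogel plus rat collagen I. Compounds were added at five 10-fold concentrations, and after 3 days CellTiter-Glo 2.0 luminescence was recorded and normalised to vehicle (0.1% DMSO) and cell-killing control wells. IC50, maximal inhibition and drug sensitivity score came from percent-inhibition dose–response fitting in the FIMM pipeline.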

UT-SCC-14 [4] = assay: as above
In short: as §2

UT-SCC-106A [5] = assay: as above
In short: as §2

UT-SCC-42B [6] = assay: as above
In short: as §2

UT-SCC-81 = assay: maximal % inhibition of viability relative to DMSO; higher = stronger effect
Experimental: as §1, with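 “DMSO” for “DMSO (0% inhibition)”, “and” for “and 100 uM”, “chloride” for “chloride (100% inhibition)”, “DSS.” for “the drug sensitivity score (DSS).”, “_1/_2/_3” for “_1/_2/_3 on drug names”, “replicates. Only inhibition-mode (IC50) fits are kept.” for “replicates.”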

UT-SCC-24B = assay: as above
Experimental: as §1, with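 “DMSO” for “DMSO (0% inhibition)”, “and” for “and 100 uM”, “chloride” for “chloride (100% inhibition)”, “DSS.” for “the drug sensitivity score (DSS).”, “_1/_2/_3” for “_1/_2/_3 on drug names”, “replicates. Only inhibition-mode (IC50) fits are kept.” for “replicates.”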

UT-SCC-28 = assay: as above
Experimental: as §1, with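 “DMSO” for “DMSO (0% inhibition)”, “and” for “and 100 uM”, “chloride” for “chloride (100% inhibition)”, “DSS.” for “the drug sensitivity score (DSS).”, “_1/_2/_3” for “_1/_2/_3 on drug names”, “replicates. Only inhibition-mode (IC50) fits are kept.” for “replicates.”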

UT-SCC-8 = assay: as above
Experimental: as §1, with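 “DMSO” for “DMSO (0% inhibition)”, “and” for “and 100 uM”, “chloride” for “chloride (100% inhibition)”, “DSS.” for “the drug sensitivity score (DSS).”, “_1/_2/_3” for “_1/_2/_3 on drug names”, “replicates. Only inhibition-mode (IC50) fits are kept.” for “replicates.”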

UT-SCC-42A [7] = assay: as above
Experimental: as §1, with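 “DMSO” for “DMSO (0% inhibition)”, “and” for “and 100 uM”, “chloride” for “chloride (100% inhibition)”, “DSS.” for “the drug sensitivity score (DSS).”, “_1/_2/_3” for “_1/_2/_3 on drug names”, “replicates. Only inhibition-mode (IC50) fits are kept.” for “replicates.”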

UT-SCC-14 [8] = assay: as above
Experimental: as §1, with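 “DMSO” for “DMSO (0% inhibition)”, “and” for “and 100 uM”, “chloride” for “chloride (100% inhibition)”, “DSS.” for “the drug sensitivity score (DSS).”, “_1/_2/_3” for “_1/_2/_3 on drug names”, “replicates. Only inhibition-mode (IC50) fits are kept.” for “replicates.”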

UT-SCC-44 = assay: as above
Experimental: as §1, with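 “DMSO” for “DMSO (0% inhibition)”, “and” for “and 100 uM”, “chloride” for “chloride (100% inhibition)”, “DSS.” for “the drug sensitivity score (DSS).”, “_1/_2/_3” for “_1/_2/_3 on drug names”, “replicates. Only inhibition-mode (IC50) fits are kept.” for “replicates.”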

UT-SCC-106A [9] = assay: as above
Experimental: as §1, with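 “DMSO” for “DMSO (0% inhibition)”, “and” for “and 100 uM”, “chloride” for “chloride (100% inhibition)”, “DSS.” for “the drug sensitivity score (DSS).”, “_1/_2/_3” for “_1/_2/_3 on drug names”, “replicates. Only inhibition-mode (IC50) fits are kept.” for “replicates.”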

UT-SCC-42B [10] = assay: as above
Experimental: as §1, with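 “DMSO” for “DMSO (0% inhibition)”, “and” for “and 100 uM”, “chloride” for “chloride (100% inhibition)”, “DSS.” for “the drug sensitivity score (DSS).”, “_1/_2/_3” for “_1/_2/_3 on drug names”, “replicates. Only inhibition-mode (IC50) fits are kept.” for “replicates.”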

UT-SCC-73 = assay: as above
Experimental: as §1, with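 “DMSO” for “DMSO (0% inhibition)”, “and” for “and 100 uM”, “chloride” for “chloride (100% inhibition)”, “DSS.” for “the drug sensitivity score (DSS).”, “_1/_2/_3” for “_1/_2/_3 on drug names”, “replicates. Only inhibition-mode (IC50) fits are kept.” for “replicates.”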

UT-SCC-40 = assay: as above
Experimental: as §1, with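 “DMSO” for “DMSO (0% inhibition)”, “and” for “and 100 uM”, “chloride” for “chloride (100% inhibition)”, “DSS.” for “the drug sensitivity score (DSS).”, “_1/_2/_3” for “_1/_2/_3 on drug names”, “replicates. Only inhibition-mode (IC50) fits are kept.” for “replicates.”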

[11] = culture condition: on top of Matrigel
[12] = culture condition: plastic 2D (no matrix)
[13] = culture condition: embedded in Matrigel
[14] = culture condition: embedded in Myogel + collagen I
[15] = culture condition: on top of Myogel

In the case of `Cn1c(=O)c(F)c(Nc2ccc(I)cc2F)c2c(=O)n(C[C@@H](O)CO)cnc21` [TAK-733], the “relative IC50” value (UT-SCC-24A [1]; [11]) is reported as 1.23 nM, the “relative IC50” value (UT-SCC-24A [1]; [12]) is reported as 1.21 nM and the drug sensitivity score (UT-SCC-24A [2]; [13]) is reported as 32.5 ± 1.7 DSS. It also gave a drug sensitivity score (UT-SCC-24A [2]; [14]) of 17 ± 1.9 DSS, a drug sensitivity score (UT-SCC-24A [2]; [11]) of 27 ± 0.5 DSS and a drug sensitivity score (UT-SCC-24A [2]; [15]) of 9.37 ± 1.8 DSS. For the same compound, the drug sensitivity score (UT-SCC-24A [2]; [12]) was 24.6 ± 0.76 DSS, the drug sensitivity score (UT-SCC-42A [3]; [13]) was 16.7 ± 2 DSS and the drug sensitivity score (UT-SCC-42A [3]; [14]) was 8.73 ± 7.5 DSS. The drug sensitivity score (UT-SCC-42A [3]; [11]) was 16 ± 1.3 DSS, the drug sensitivity score (UT-SCC-42A [3]; [15]) was 9.63 ± 2.4 DSS and the drug sensitivity score (UT-SCC-42A [3]; [12]) was 11.4 ± 1.6 DSS. It also gave a drug sensitivity score (UT-SCC-14 [4]; [13]) of 11.2 ± 3.2 DSS, a drug sensitivity score (UT-SCC-14 [4]; [14]) of 7.5 ± 1.5 DSS and a drug sensitivity score (UT-SCC-14 [4]; [11]) of 7.13 ± 0.64 DSS. It also gave a drug sensitivity score (UT-SCC-14 [4]; [15]) of 5 ± 0.98 DSS, a drug sensitivity score (UT-SCC-14 [4]; [12]) of 2.67 ± 3 DSS and a drug sensitivity score (UT-SCC-106A [5]; [13]) of 16.8 ± 1.1 DSS. It also gave a drug sensitivity score (UT-SCC-106A [5]; [14]) of 1.2 ± 0.56 DSS, a drug sensitivity score (UT-SCC-106A [5]; [11]) of 18.7 ± 0.38 DSS and a drug sensitivity score (UT-SCC-106A [5]; [15]) of 1.07 ± 1.1 DSS. The drug sensitivity score (UT-SCC-106A [5]; [12]) was 19 ± 1.2 DSS, the drug sensitivity score (UT-SCC-42B [6]; [13]) was 24.1 ± 2.8 DSS and the drug sensitivity score (UT-SCC-42B [6]; [11]) was 12.4 ± 1.9 DSS. The drug sensitivity score (UT-SCC-42B [6]; [15]) was 2.6 ± 0.1 DSS, the drug sensitivity score (UT-SCC-42B [6]; [12]) was 6.27 ± 1.4 DSS and the “maximal % inhibition of viability” value (UT-SCC-81; [13]) was 87.1 ± 4%. The “maximal % inhibition of viability” value (UT-SCC-81; [14]) was 25 ± 12%, the “maximal % inhibition of viability” value (UT-SCC-81; [11]) was 71.5 ± 6% and the “maximal % inhibition of viability” value (UT-SCC-81; [15]) was 24.3 ± 5.5%. For the same compound, the “maximal % inhibition of viability” value (UT-SCC-81; [12]) was 36.4 ± 2.3%, the “maximal % inhibition of viability” value (UT-SCC-24B; [13]) was 67.3 ± 1.5% and the “maximal % inhibition of viability” value (UT-SCC-24B; [14]) was 67.2 ± 1.2%. The “maximal % inhibition of viability” value (UT-SCC-24B; [11]) was 64.3 ± 1.3%, the “maximal % inhibition of viability” value (UT-SCC-24B; [15]) was 55.5 ± 2.2% and the “maximal % inhibition of viability” value (UT-SCC-24B; [12]) was 79.9 ± 1.1%. For the same compound, the “maximal % inhibition of viability” value (UT-SCC-28; [13]) was 36.6 ± 7.2%, the “maximal % inhibition of viability” value (UT-SCC-28; [14]) was 22.7 ± 21% and the “maximal % inhibition of viability” value (UT-SCC-28; [11]) was 41.5 ± 1.7%. The “maximal % inhibition of viability” value (UT-SCC-28; [12]) was 25.6 ± 1%, the “maximal % inhibition of viability” value (UT-SCC-8; [13]) was 74.4 ± 12% and the “maximal % inhibition of viability” value (UT-SCC-8; [14]) was 35.5 ± 26%. For the same compound, the “maximal % inhibition of viability” value (UT-SCC-8; [11]) was 65.3 ± 12%, the “maximal % inhibition of viability” value (UT-SCC-8; [15]) was 46.8 ± 21% and the “maximal % inhibition of viability” value (UT-SCC-8; [12]) was 56.1 ± 17%. The “maximal % inhibition of viability” value (UT-SCC-42A [7]; [13]) was 57.9 ± 2.6%, the “maximal % inhibition of viability” value (UT-SCC-42A [7]; [14]) was 41.5 ± 27% and the “maximal % inhibition of viability” value (UT-SCC-42A [7]; [11]) was 59.9 ± 5.2%. For the same compound, the “maximal % inhibition of viability” value (UT-SCC-42A [7]; [15]) was 42.1 ± 5.3%, the “maximal % inhibition of viability” value (UT-SCC-42A [7]; [12]) was 52.7 ± 3.6% and the “maximal % inhibition of viability” value (UT-SCC-14 [8]; [13]) was 42.3 ± 17%. For the same compound, the “maximal % inhibition of viability” value (UT-SCC-14 [8]; [14]) was 31.8 ± 2.2%, the “maximal % inhibition of viability” value (UT-SCC-14 [8]; [11]) was 33.3 ± 3.4% and the “maximal % inhibition of viability” value (UT-SCC-14 [8]; [15]) was 28.6 ± 2.2%. The “maximal % inhibition of viability” value (UT-SCC-14 [8]; [12]) was 20.4 ± 13%, the “maximal % inhibition of viability” value (UT-SCC-44; [13]) was 75.4 ± 0.62% and the “maximal % inhibition of viability” value (UT-SCC-44; [14]) was 37.1 ± 8.1%. The “maximal % inhibition of viability” value (UT-SCC-44; [11]) was 64.6 ± 10%, the “maximal % inhibition of viability” value (UT-SCC-44; [15]) was 38.3 ± 4.8% and the “maximal % inhibition of viability” value (UT-SCC-44; [12]) was 53.6 ± 3.3%. For the same compound, the “maximal % inhibition of viability” value (UT-SCC-106A [9]; [13]) was 52.3 ± 2.4%, the “maximal % inhibition of viability” value (UT-SCC-106A [9]; [14]) was 19 ± 5.5% and the “maximal % inhibition of viability” value (UT-SCC-106A [9]; [11]) was 61.9 ± 4.9%. For the same compound, the “maximal % inhibition of viability” value (UT-SCC-106A [9]; [15]) was 17.8 ± 1.7%, the “maximal % inhibition of viability” value (UT-SCC-106A [9]; [12]) was 63.4 ± 1.2% and the “maximal % inhibition of viability” value (UT-SCC-42B [10]; [13]) was 71.3 ± 7.9%. For the same compound, the “maximal % inhibition of viability” value (UT-SCC-42B [10]; [11]) was 54 ± 1.3%, the “maximal % inhibition of viability” value (UT-SCC-42B [10]; [15]) was 30.2 ± 3.9% and the “maximal % inhibition of viability” value (UT-SCC-42B [10]; [12]) was 38.4 ± 5.8%. The “maximal % inhibition of viability” value (UT-SCC-73; [13]) was 79.1 ± 1.5%, the “maximal % inhibition of viability” value (UT-SCC-73; [14]) was 48.3 ± 16% and the “maximal % inhibition of viability” value (UT-SCC-73; [11]) was 74.1 ± 1%. The “maximal % inhibition of viability” value (UT-SCC-73; [15]) was 59.9 ± 4.8%, the “maximal % inhibition of viability” value (UT-SCC-73; [12]) was 68.4 ± 3.9% and the “maximal % inhibition of viability” value (UT-SCC-40; [13]) was 78.2 ± 1.2%. The “maximal % inhibition of viability” value (UT-SCC-40; [14]) was 64 ± 2.1%, the “maximal % inhibition of viability” value (UT-SCC-40; [11]) was 72.9 ± 2.1% and the “maximal % inhibition of viability” value (UT-SCC-40; [15]) was 51 ± 0.89%. For the same compound, the “maximal % inhibition of viability” value (UT-SCC-40; [12]) was 53.7 ± 0.74%.
